One assay has as its system L1210. In words: Cytotoxicity against mouse L1210 cells. Type of assay: functional, cell-based.
For another assay, the system named is OVCAR-3. In words: Inhibition of cell growth in human OVCAR-3 cells by SRB assay. In kind it is functional. The settings on record: read-out: ED50 (the source's name). (In general: In SRB staining, fixed cells bind dye roughly in proportion to their protein.)
In the next assay the test system is NCI-H460. In words: Inhibition of cell growth in human NCI-H460 cells by SRB assay. In kind it is functional. As to conditions: read-out: ED50 (the source's name).
Another assay has as its system SK-MEL-5. In words: Inhibition of cell growth in human SK-MEL-5 cells by SRB assay. In kind it is functional. As to conditions: read-out: ED50 (the source's name).
Another assay concerns A498. In words: Inhibition of cell growth in human A498 cells by SRB assay. In kind it is functional. The settings on record: read-out: ED50 (the source's name).
In a further assay the test system is KM-20L2. In words: Inhibition of cell growth in human KM-20L2 cells by SRB assay. In kind it is functional. The settings on record: read-out: ED50 (the source's name).
The subject of another assay is SF-295. In words: Inhibition of cell growth in human SF-295 cells by SRB assay. Type of assay: functional. The settings on record: read-out: ED50 (the source's name).
Another assay deals with CNE. The assay is described as follows: Cytotoxicity against human CNE cells incubated for 72 hrs by MTT assay. Type of assay: functional, cell-based. (Formazan colour is commonly taken as a measure of viable cells.)
For a further assay, the system named is HeLa. In words: Cytotoxicity against human HeLa cells incubated for 72 hrs by MTT assay. In kind it is functional, cell-based.
Assay [1] relates to LoVo. In words: Cytotoxicity against human LoVo cells incubated for 72 hrs by MTT assay. In kind it is functional, cell-based.
In the next assay the test system is Bel-7402. In words: Cytotoxicity against human Bel-7402 cells incubated for 72 hrs by MTT assay. Type of assay: functional, cell-based. As to conditions: Bel-7402, 72 h.
Another assay has as its system HepG2. In words: Cytotoxicity against human HepG2 cells incubated for 72 hrs by MTT assay. In kind it is functional, cell-based. As to conditions: HepG2, 72 h.
For assay [2], the system named is MCF7. The assay is described as follows: Cytotoxicity against human MCF7 cells incubated for 72 hrs by MTT assay. In kind it is functional, cell-based. As to conditions: MCF7, 72 h.
The nature of assay [3]: Inhibition of recombinant human MAPK expressed in Escherichia coli assessed as reduction in MEK-1 phosphorylation incubated for 60 mins by ELISA assay. On the technique in general: An ELISA detects its analyte on a solid surface through an enzyme-linked reagent.
Assay [4] relates to LoVo. In words: Inhibition of cell growth in human LoVo cells by SRB assay. In kind it is functional, cell-based.
For assay [5], the target named is Receptor tyrosine-protein kinase erbB-2 (Homo sapiens, UniProt P04626). The assay is described as follows: Inhibition of c-ErbB-2 (unknown origin).
Assay [6] concerns the target Cyclin-dependent kinase 4 (Homo sapiens, UniProt P11802). The assay is described as follows: Inhibition of CDK4 (unknown origin).
The subject of a further assay is P388. In words: Cytotoxicity against mouse P388 cells. Type of assay: functional, cell-based.
Another assay concerns Jurkat. In words: Antiinflammatory activity in PMA induced human Jurkat cells assessed as inhibition of IL-2 production by EIA assay. In kind it is functional, cell-based.
The test system of assay [7] is MCF7. In words: Cytotoxicity against human MCF7 cells by MTT assay. In kind it is functional, cell-based.
A further assay deals with WRL68. In words: Cytotoxicity against human WRL68 cells by MTT assay. Type of assay: functional, cell-based.
Another assay deals with Caco-2. The assay is described as follows: Cytotoxicity against human Caco-2 cells by MTT assay. In kind it is functional, cell-based.
For assay [8], the target named is E3 ubiquitin-protein ligase CBL-B (Homo sapiens, UniProt Q13191). In words: Inhibition of Cbl-b (unknown origin) assessed as inhibition of Cbl-b dependent ubiquitination in presence of ATP measured after 13 hrs by fluorescence microplate reader assay.
For a further assay, the system named is MDA-MB-231. The assay is described as follows: Cytotoxicity against human MDA-MB-231 cells assessed as cell growth inhibition by cell based assay. Type of assay: functional.
The next assay relates to PSN1. The assay is described as follows: Cytotoxicity against human PSN1 cells assessed as cell growth inhibition by cell based assay. In kind it is functional.
A further assay concerns HT-29. In words: Cytotoxicity against human HT-29 cells assessed as cell growth inhibition by cell based assay. Type of assay: functional.
In a further assay the test system is A549. The assay is described as follows: Cytotoxicity against human A549 cells assessed as cell growth inhibition by cell based assay. Type of assay: functional.
Another assay relates to KB. In words: Cytotoxicity against human KB cells. Type of assay: functional, cell-based.
For another assay, the system named is K562. In words: Cytotoxicity against human K562 cells. Type of assay: functional, cell-based.

Chain of E3 ubiquitin-protein ligase CBL-B (Q13191 whole entry): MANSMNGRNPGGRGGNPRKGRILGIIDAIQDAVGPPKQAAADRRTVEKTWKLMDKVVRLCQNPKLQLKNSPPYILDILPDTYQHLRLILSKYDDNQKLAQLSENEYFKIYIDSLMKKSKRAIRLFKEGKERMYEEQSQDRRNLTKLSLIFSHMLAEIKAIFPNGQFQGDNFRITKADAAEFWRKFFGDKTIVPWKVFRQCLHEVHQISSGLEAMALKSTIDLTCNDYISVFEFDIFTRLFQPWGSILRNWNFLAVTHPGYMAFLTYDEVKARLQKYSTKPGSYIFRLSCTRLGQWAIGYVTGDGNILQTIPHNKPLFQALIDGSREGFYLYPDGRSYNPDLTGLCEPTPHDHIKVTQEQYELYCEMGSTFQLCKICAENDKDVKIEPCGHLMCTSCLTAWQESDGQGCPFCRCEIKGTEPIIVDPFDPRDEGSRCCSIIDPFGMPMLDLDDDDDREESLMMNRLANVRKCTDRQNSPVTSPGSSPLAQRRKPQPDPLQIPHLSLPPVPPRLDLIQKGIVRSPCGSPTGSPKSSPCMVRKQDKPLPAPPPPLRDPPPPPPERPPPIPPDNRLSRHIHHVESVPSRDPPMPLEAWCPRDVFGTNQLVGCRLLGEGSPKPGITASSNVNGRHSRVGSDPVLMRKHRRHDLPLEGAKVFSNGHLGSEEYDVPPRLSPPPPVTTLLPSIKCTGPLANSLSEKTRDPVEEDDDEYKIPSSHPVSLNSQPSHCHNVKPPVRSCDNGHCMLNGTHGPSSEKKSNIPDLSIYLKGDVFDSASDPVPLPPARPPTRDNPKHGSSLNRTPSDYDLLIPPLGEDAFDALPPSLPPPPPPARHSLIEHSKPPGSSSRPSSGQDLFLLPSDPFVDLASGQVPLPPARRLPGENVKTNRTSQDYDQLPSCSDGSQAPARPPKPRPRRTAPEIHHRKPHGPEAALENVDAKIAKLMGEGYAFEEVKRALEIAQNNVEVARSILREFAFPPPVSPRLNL
Chain of Cyclin-dependent kinase 4 (P11802 whole entry): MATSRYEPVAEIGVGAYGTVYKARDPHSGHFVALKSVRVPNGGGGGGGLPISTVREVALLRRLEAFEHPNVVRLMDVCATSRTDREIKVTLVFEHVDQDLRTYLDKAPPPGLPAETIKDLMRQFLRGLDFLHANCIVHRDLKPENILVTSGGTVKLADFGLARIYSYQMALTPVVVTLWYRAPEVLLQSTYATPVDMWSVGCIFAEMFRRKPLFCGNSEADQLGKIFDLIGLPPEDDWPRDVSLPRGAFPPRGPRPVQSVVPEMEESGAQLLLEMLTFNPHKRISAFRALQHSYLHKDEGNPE
Chain of Receptor tyrosine-protein kinase erbB-2 (P04626 whole entry): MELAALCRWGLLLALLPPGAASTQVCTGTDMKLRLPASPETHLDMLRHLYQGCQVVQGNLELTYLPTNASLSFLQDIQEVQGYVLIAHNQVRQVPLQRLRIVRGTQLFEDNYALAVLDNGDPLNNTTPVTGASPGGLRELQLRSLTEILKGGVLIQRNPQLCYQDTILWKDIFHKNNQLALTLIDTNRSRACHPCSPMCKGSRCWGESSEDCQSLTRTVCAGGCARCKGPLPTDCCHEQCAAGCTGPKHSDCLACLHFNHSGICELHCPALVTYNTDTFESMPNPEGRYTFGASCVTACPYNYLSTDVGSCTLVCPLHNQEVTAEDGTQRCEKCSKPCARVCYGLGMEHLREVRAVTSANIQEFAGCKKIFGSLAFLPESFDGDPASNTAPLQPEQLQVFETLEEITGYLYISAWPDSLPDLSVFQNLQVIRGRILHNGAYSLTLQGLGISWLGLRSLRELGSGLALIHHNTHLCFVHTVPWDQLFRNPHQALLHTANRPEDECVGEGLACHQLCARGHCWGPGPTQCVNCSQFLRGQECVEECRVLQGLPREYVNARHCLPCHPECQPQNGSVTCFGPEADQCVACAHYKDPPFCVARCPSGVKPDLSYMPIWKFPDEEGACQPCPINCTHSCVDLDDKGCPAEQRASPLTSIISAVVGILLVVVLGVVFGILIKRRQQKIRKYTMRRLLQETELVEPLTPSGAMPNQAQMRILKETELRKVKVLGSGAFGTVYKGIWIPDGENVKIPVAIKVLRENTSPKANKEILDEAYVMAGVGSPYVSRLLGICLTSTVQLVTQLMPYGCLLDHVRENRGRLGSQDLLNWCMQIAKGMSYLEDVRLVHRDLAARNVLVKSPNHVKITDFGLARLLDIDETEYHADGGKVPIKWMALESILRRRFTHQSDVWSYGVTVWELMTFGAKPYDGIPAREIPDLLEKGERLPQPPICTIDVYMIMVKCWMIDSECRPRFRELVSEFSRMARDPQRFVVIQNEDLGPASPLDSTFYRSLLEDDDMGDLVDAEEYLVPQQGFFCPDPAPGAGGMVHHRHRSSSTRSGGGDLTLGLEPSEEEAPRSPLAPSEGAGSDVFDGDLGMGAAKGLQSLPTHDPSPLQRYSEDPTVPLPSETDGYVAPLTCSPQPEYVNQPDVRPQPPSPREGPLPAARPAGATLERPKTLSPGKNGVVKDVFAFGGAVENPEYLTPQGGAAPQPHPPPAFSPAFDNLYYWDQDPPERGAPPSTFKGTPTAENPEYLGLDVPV

As to `CO[C@]12C[C@@H](CNC(=O)c3cc(Br)c[nH]3)O[C@H]1NC(=O)N2`, the IC50 – broadly, the concentration that gives 50% inhibition – in the assay on L1210 was 19.6 µM.

Take `CO[C@@]12C[C@@H](CNC(=O)c3cc(Br)c[nH]3)O[C@@H]1NC(=O)N2`: in the assay on L1210, the IC50 is 20.9 µM.

With `O=C1NC2n3c(cc(Br)c3Br)C(=O)N3CCCC23N1` (stereo not given), the EC50 in the assay on OVCAR-3 was determined as 1.18 µM; in the assay with NCI-H460 it was 1.59 µM; in the assay on SK-MEL-5, 0.28 µM; in the assay on A498 it was 0.53 µM; with KM-20L2, 0.28 µM; in the assay on SF-295 it was 3.85 µM.

With `COC(=O)C(NCC(=O)c1cc(Br)c(Br)[nH]1)C(C)C` (stereo not given), the IC50 in the assay with CNE came to 43.5 µM; in the assay on HeLa, 13.8 µM; in the assay with LoVo [1] it was 0.96 µM; with Bel-7402, 27.8 µM; in the assay with HepG2, 15.3 µM; in the assay with MCF7 [2], 28.6 µM.

Turning to `NC1=N/C(=C2\CCNC(=O)c3[nH]c(Br)cc32)C(=O)N1`, the half-inhibitory concentration (IC50) (in assay [3]; with LoVo [4]) was 0.003 µM each time.

As for `N=C1NC(=O)/C(=C2/CCNC(=O)c3[nH]c(Br)c(Br)c32)N1`, the IC50 in assay [5] was 21 µM; in assay [6], 98.5 µM.

On to `N=C1NC(=O)/C(=C2/CCNC(=O)c3[nH]cc(Br)c32)N1`, for which the IC50 in [5] came out at 18.5 µM; in [6] it was 29.6 µM.

`COCNC(=O)c1cc(Br)c(Br)[nH]1`: the EC50 with P388 (read-out: ED50 (the source's name)) was 69.4 µM.

Consider `NC1=NC(=O)/C(=C2\CCNC(=O)c3[nH]c4ccccc4c32)N1`, for which the IC50 in the assay with Jurkat was determined as 3.5 µM.

In the case of `Cc1ccccc1NC(=S)NNC(=O)c1cc(Br)c(Br)n1C`, the IC50 in the assay with MCF7 [7], in the assay on WRL68 and in the assay on Caco-2 was 0.07 µM each time.

Consider `Cn1cc(Br)cc1C(=O)NC[C@H]1CC2N=C(N)NC2[C@@H](c2c[nH]c(N)n2)[C@@H]1CNC(=O)c1cc(Br)cn1C` (stereo not given in full), for which the IC50 in assay [8] amounted to 18 µM.

As for `CN1C(=O)C[C@H](C(N)=O)NC(=O)C(O)CNC(=O)[C@H](CNC(=O)c2cc(Br)c(Br)[nH]2)NC(=O)[C@H](CN)NC(=O)C1Cc1cnc(Cl)[nH]1` (stereo not given in full), the GI50 in the assay on MDA-MB-231, in the assay on PSN1, in the assay with HT-29 and in the assay on A549 was more than 12 µM throughout.

On to `Cn1c(Br)ccc1C(=O)NC[C@H]1CC2N=C(N)NC2[C@@H](c2c[nH]c(N)n2)[C@@H]1CNC(=O)c1cc(Br)c[nH]1` (stereo not given in full), for which the IC50 in assay [8] was determined as 18 µM.

Consider `NC1NC(/C=C/CNC(=O)c2cc(Br)c(Br)[nH]2)=C([n+]2cccc(O)c2)N1` (stereo not given), for which the IC50 with KB and in the assay with K562 was 20.7 µM throughout.

On to `NC1NC[C@H](O)[C@@]2(N1)[C@H]1[C@H](CN3C(=O)c4cc(Br)cn4[C@H]4NC(N)N[C@@]413)[C@H](CNC(=O)c1cc(Br)c(Br)[nH]1)[C@@H]2Cl` (stereo not given in full), for which the IC50 in the assay with L1210 is 26.7 µM; in the assay with KB, 26.7 µM; in assay [6] it was 26.1 µM.

Regarding `O=C(NNC(=S)Nc1ccc(Cl)cc1)c1cc(Br)c(Br)[nH]1`, the IC50 in the assay on MCF7 [7], in the assay on WRL68 and in the assay on Caco-2 was 0.03 µM in each case.

Take `O=C(NNC(=S)Nc1ccc([N+](=O)[O-])cc1)c1cc(Br)c(Br)[nH]1`: the IC50 in the assay with MCF7 [7], in the assay on WRL68 and with Caco-2 was 0.03 µM in each case.

Regarding `NC1=N[C@@]23CCCN2C(=O)c2c([nH]c(Br)c2Br)[C@H]3N1`, the IC50 in the assay on P388 worked out at 20.3 µM.

`Cn1cc(Br)cc1C(=O)NC[C@H]1CC2N=C(N)NC2[C@@H](c2c[nH]c(N)n2)[C@@H]1CNC(=O)c1cc(Br)c[nH]1` (stereo not given in full): the IC50 in assay [8] stood at 18 µM.

The compound `NC1=N[C@]23[C@H](N1)c1[nH]c(Br)c(Br)c1C(=O)N2C[C@H](O)[C@H]3O` returned an IC50 in the assay on P388 of 78.4 µM.

The values above are taken from ChEMBL document CHEMBL5241122, “A concise review on marine bromopyrrole alkaloids as anticancer agents” (Bioorg Med Chem Lett, 2023).
